Measurements: patent US9546172B2, “Pyrazolo[3,4-d]pyrimidine and pyrazolo[2,3-d]pyrimidine compounds as kinase inhibitors” (Pharmacyclics LLC, priority 2011, dated 2017)

Assays:
Format in all cases: biochemical
BMX = biological target: T1, BMX (Homo sapiens, UniProt P51813); assay: BMX kinase inhibition
T1 sequence (P51813 1-675): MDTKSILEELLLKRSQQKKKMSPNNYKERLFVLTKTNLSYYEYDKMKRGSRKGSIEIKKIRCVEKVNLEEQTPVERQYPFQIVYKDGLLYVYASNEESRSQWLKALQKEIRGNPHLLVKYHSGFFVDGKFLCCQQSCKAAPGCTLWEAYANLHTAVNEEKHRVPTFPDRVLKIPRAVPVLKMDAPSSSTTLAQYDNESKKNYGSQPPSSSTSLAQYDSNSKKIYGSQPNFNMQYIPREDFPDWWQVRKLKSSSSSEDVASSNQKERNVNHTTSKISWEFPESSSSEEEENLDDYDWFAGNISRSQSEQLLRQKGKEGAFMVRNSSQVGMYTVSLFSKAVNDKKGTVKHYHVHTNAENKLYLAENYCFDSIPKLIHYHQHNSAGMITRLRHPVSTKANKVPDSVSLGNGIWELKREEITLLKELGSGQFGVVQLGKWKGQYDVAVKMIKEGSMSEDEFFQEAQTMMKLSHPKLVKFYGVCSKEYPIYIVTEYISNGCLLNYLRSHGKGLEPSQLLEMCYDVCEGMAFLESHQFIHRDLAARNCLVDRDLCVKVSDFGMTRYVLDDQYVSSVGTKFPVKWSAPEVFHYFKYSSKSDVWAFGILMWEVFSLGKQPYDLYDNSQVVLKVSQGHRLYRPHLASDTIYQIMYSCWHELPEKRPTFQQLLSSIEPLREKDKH

RET = RET (Homo sapiens, UniProt P07949); assay: RET kinase inhibition
Tec = biological target: T2, Tec (Homo sapiens, UniProt P42680); assay: Tec kinase inhibition
T2 sequence (P42680 1-631): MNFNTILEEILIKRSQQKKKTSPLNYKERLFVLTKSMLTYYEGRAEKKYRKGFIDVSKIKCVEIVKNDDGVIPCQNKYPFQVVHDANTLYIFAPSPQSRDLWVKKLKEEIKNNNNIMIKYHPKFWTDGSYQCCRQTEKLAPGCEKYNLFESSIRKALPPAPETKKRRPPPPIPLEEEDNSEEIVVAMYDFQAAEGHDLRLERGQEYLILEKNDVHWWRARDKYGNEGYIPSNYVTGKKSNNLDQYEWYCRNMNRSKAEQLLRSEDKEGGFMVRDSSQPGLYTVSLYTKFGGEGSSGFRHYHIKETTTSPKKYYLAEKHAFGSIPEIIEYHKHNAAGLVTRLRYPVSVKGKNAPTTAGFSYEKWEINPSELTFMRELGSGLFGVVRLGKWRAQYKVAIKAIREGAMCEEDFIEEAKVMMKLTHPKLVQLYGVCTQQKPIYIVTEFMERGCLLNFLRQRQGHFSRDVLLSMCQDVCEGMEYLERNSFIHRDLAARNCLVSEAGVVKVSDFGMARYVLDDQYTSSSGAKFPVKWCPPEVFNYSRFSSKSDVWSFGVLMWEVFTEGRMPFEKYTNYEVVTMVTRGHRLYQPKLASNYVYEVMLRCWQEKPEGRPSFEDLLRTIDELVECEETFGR
Protocol: (§1) Btk kinase activity was determined using a time-resolved fluorescence resonance energy transfer (TR-FRET) methodology. Measurements were performed in a reaction volume of 50 μL using 96-well assay plates. […] The reaction was quenched by the addition of 1.2 equivalents of EDTA (relative to divalent cation) in 25 μL of 1× Lance buffer (Perkin-Elmer). Streptavidin-APC (Perkin-Elmer) and Eu-labeled p-Tyr100 antibody (Perkin-Elmer) in 1× Lance buffer were added in a 25 μL volume to give final concentrations of 100 nM and 2.5 nM, respectively, and the mixture was allowed to incubate for one hour. The TR-FRET signal was measured on a multimode plate reader with an excitation wavelength (λEx) of 330 nm and detection wavelengths (λEm) of 615 and 665 nm. Activity was determined by the ratio of the fluorescence at 665 nm to that at 615 nm. For each compound, enzyme activity was measured at various concentrations of compound. Negative control reactions were performed in the absence of inhibitor in replicates of six, and two no-enzyme controls were used to determine baseline fluorescence levels Inhibition constants, Ki(app), were obtained using the program BatchKi (Kuzmic et al. (2000), Anal. Biochem. 286:45-50). IC50s were obtained according to the equation: IC50={Ki(app)/(1+[ATP]/Km^ATP)}+[E]total/2; For all kinases, [ATP]=Km^ATP, [Btk]total=0.5 nM and [Lck]total=6 nM.

CSK = CSK (Homo sapiens, UniProt P41240); assay: CSK kinase inhibition
EGFR = EGFR (Homo sapiens, UniProt P00533); assay: EGFR kinase inhibition
Lck = Lck (Homo sapiens, UniProt P06239); assay: Lck kinase inhibition
Protocol: as §1

Btk = biological target: T3, Btk (Homo sapiens, UniProt Q06187); assay: Btk in vitro inhibitory activity (one of Methods A, B, C); conditions: determined in one of three in vitro assays (Examples 125-127)
T3 construct: purified from insect cells as a full-length construct containing a N-terminal 6×-His tag; 6xHis (N); host or cells: insect cells (baculovirus Sf21 in Method B)
Protocol: The Btk IC50s of compounds disclosed herein was determined in one of the three in vitro assays described in Examples 125-127.
as §1
Kinase activity is measured in vitro using electrophoretic mobility shift assay. The kinase reactions are assembled in a total volume of 25 μL in 384 well plates. […] The reaction is incubated for one hour and is quenched by the addition of 45 μL of termination buffer (100 mM HEPES, pH7.5, 0.01% Triton X-100, 30 mM EDTA). The terminated reactions are analyzed using 12 channel LabChip® 3000 microfluidic detection instrument (Caliper Life Sciences). The enzymatic phosphorylation of the peptide results in a change in net charge, enabling electrophoretic separation of product from substrate peptide. As substrate and product peptides are separated, two peaks of fluorescence are observed. Change in the relative fluorescence intensity of the substrate and product peaks is the parameter measured, reflecting enzyme activity. In the presence of an inhibitor, the ratio between product and substrate is altered: the signal of the product decreases, while the signal of the substrate increases.
Activity in each sample is determined as the product to sum ratio (PSR): P/(S+P), where P is the peak height of the product peptide and S is the peak height of the substrate peptide. For each compound, enzyme activity is measured at various concentrations (12 concentrations of compound spaced by 3× dilution intervals). Negative control samples (0%-inhibition in the absence of inhibitor) and positive control samples (100%-inhibition, in the presence of 20 mM EDTA) are assembled in replicates of four and are used to calculate %-inhibition values for each inhibitor at each concentration. Percent inhibition (Pinh) is determined using following equation: Pinh=(PSR0%−PSRinh)/(PSR0%−PSR100%)*100, where PSRinh is the product sum ratio in the presence of inhibitor, PSR0% is the average product sum ration in the absence of inhibitor and PSR100% is the average product sum ratio in 100%-inhibition control samples;
The IC50 values of inhibitors are determined by 4 parameter sigmoidal dose-response model fitting of the inhibition curves (Pinh versus inhibitor concentration) using XLfit 4 software.
Human Btk kinase (Genbank accession # NP_000052) was purified from insect cells as a full-length construct containing a N-terminal 6×-His tag. Btk kinase activity was determined using a radiometric filter binding assay. Measurements are performed in a low reaction volume 384-well assay plates. […]

C-src = C-src (Homo sapiens, UniProt P12931); assay: C-src kinase inhibition
Protocol: as §1

BLK = BLK (Homo sapiens, UniProt P51451); assay: BLK kinase inhibition
Protocol: as §1

Lyn = Lyn (Homo sapiens, UniProt P07948); assay: Lyn kinase inhibition
Lyn, sequence (P07948 whole entry): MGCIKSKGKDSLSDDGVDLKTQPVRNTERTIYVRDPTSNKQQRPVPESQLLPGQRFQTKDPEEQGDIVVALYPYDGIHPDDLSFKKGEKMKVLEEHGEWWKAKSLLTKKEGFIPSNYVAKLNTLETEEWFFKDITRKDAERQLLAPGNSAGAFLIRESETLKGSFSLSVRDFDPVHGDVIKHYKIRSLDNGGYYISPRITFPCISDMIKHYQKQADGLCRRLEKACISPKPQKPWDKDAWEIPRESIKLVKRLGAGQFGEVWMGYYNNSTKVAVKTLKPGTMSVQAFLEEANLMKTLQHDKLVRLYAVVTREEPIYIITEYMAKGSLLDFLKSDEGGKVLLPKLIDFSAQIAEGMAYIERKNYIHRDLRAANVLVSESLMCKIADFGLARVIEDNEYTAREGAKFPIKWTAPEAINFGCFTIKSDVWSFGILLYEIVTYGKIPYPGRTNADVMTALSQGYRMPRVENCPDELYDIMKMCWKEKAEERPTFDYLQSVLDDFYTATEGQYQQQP

EGFR, sequence (P00533 25-1210): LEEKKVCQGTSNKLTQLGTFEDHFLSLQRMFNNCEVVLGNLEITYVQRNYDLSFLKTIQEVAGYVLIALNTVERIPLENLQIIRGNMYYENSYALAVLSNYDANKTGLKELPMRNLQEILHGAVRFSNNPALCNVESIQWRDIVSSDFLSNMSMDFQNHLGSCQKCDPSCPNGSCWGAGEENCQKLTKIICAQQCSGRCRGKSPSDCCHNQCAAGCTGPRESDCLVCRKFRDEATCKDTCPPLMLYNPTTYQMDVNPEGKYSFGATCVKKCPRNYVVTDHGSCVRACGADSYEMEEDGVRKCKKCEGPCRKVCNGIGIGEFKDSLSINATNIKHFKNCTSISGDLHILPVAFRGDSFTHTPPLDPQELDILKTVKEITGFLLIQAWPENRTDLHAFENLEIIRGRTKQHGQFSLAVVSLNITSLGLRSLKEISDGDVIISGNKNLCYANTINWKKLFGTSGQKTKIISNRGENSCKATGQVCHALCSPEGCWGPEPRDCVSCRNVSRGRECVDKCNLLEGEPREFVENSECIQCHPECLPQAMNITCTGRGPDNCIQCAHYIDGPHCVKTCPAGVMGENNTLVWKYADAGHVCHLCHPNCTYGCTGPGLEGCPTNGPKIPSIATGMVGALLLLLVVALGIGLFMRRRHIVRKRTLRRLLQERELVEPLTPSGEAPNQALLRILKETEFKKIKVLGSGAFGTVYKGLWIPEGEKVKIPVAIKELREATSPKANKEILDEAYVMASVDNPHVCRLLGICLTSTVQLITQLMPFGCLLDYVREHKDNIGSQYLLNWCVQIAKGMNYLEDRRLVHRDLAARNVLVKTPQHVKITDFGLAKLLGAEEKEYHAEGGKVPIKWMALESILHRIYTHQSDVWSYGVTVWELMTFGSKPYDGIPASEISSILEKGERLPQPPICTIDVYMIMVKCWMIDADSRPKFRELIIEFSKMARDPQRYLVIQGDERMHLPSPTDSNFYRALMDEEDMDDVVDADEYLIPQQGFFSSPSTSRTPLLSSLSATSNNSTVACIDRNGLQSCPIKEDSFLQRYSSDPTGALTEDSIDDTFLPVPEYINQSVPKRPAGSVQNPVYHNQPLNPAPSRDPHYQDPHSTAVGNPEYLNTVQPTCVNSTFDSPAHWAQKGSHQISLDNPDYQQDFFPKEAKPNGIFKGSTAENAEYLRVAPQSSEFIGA
C-src, sequence (P12931 whole entry): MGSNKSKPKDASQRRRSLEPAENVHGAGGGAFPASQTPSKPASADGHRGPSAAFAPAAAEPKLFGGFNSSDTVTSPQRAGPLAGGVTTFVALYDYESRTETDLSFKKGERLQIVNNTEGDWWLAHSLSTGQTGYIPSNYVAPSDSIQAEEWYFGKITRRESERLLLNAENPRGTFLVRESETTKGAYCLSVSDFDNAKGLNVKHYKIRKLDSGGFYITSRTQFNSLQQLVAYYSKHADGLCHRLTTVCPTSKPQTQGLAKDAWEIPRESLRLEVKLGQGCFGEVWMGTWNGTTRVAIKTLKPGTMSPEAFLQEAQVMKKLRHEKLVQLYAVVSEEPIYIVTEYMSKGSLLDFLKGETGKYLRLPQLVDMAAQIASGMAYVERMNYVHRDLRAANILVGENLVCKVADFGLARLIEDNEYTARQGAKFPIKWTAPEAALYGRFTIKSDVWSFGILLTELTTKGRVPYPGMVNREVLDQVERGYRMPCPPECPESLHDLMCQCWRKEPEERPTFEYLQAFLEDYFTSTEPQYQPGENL
T3 sequence (Q06187 whole entry): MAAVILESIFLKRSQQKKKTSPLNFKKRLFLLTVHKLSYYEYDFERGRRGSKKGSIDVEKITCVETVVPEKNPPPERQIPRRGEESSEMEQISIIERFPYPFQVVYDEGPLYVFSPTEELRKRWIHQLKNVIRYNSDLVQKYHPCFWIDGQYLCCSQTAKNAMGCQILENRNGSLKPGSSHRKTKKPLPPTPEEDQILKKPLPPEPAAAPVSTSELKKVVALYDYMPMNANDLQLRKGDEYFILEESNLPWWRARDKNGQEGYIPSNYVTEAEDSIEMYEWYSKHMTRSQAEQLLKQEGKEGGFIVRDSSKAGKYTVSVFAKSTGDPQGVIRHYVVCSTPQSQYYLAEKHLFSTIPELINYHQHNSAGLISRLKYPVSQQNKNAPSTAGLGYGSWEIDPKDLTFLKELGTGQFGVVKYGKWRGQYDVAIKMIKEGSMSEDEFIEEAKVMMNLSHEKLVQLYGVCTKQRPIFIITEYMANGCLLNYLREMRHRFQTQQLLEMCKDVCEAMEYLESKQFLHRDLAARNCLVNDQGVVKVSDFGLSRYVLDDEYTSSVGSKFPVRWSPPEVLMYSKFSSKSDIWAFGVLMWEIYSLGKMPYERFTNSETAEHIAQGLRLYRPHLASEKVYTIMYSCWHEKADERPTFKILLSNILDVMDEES
BLK, sequence (P51451 whole entry): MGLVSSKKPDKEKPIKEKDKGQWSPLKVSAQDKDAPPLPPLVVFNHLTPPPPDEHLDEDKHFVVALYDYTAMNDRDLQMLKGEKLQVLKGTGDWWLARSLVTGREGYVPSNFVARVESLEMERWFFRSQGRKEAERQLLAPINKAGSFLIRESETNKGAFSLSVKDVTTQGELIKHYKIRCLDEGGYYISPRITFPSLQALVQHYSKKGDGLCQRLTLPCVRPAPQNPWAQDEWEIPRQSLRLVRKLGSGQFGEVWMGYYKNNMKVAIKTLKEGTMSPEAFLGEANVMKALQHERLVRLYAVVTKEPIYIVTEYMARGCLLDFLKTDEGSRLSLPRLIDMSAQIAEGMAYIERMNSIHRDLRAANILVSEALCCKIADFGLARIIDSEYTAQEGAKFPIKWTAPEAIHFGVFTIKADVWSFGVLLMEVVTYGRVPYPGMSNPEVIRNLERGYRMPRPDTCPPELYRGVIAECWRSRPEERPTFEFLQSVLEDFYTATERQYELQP
Lck, sequence (P06239 whole entry): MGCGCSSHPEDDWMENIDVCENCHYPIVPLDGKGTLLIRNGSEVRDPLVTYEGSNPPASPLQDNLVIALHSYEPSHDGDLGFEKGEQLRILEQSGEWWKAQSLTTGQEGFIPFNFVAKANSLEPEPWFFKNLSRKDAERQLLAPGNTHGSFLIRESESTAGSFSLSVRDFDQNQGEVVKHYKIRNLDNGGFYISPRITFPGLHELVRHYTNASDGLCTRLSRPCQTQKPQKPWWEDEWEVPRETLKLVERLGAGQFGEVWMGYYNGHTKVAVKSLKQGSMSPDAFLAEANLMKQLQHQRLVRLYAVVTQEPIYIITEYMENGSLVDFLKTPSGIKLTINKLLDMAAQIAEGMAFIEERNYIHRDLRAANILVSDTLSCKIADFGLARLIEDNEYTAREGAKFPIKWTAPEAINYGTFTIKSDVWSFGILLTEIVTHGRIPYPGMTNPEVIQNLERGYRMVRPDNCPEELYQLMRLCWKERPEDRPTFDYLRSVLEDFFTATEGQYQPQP
RET, sequence (P07949 29-1114): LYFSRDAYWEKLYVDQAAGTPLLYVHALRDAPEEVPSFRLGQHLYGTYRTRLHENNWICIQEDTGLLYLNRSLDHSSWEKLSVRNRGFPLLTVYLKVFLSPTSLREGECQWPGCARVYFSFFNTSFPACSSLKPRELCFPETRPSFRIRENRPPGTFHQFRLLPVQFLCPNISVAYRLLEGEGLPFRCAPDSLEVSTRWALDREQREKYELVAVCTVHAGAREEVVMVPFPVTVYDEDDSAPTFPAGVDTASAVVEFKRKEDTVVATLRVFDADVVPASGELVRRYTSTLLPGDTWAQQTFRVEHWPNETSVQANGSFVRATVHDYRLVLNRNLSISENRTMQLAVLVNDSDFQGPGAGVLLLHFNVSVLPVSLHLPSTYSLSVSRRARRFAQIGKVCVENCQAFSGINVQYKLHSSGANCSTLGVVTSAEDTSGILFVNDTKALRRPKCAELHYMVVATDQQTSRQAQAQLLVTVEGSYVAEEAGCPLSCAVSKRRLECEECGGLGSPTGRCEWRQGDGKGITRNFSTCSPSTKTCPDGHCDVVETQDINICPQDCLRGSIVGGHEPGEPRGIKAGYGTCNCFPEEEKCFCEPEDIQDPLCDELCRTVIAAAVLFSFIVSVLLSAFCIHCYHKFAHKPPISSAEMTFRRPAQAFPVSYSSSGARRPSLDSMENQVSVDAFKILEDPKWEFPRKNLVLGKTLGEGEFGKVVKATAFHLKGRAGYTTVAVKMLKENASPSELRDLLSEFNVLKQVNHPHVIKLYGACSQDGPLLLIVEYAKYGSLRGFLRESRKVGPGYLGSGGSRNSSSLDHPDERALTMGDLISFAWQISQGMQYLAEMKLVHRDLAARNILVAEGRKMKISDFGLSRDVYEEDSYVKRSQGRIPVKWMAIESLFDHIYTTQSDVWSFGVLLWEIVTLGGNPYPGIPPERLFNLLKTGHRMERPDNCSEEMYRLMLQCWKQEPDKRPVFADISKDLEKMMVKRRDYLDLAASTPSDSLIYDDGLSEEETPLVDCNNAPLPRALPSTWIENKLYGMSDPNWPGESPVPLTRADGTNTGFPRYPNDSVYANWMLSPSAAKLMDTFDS

| Compound | IC50 (BMX) | IC50 (RET) | IC50 (Tec) | IC50 (CSK) | IC50 (EGFR) | IC50 (Lck) | IC50 (Btk) | IC50 (C-src) | IC50 (BLK) | IC50 (Lyn) |
| --- | --- | --- | --- | --- | --- | --- | --- | --- | --- | --- |
| Cc1ccc(-c2nn([C@@H]3CCN(C(=O)/C=C/CN(C)C)C3)c3ncnc(N)c23)cc1 [Example 4, (R,E)-1-(3-(4-amino-3-p-tolyl-1H-pyrazolo[3,4-d]pyrimidin-1-yl)pyrrolidin-1-yl)-4-(dimethylamino)but-2-en-1-one] | < 100 nM | 100 to 1000 nM | < 100 nM | > 1000 nM | 100 to 1000 nM | 100 to 1000 nM | < 100 nM | 100 to 1000 nM | < 100 nM | 100 to 1000 nM |
| CN(C)C/C=C/C(=O)Nc1ccc(-n2nc(-c3ccc(Cl)cc3)c3c(N)ncnc32)cc1 [Example 17, (E)-N-(4-(4-amino-3-(4-chlorophenyl)-1H-pyrazolo[3,4-d]pyrimidin-1-yl)phenyl)-4-(dimethylamino)but-2-enamide] | < 100 nM | – | < 100 nM | 100 to 1000 nM | < 100 nM | < 100 nM | < 100 nM | < 100 nM | < 100 nM | < 100 nM |
| COc1cc(-c2nn(-c3cccc(N(C)C(=O)/C=C/CN(C)C4CC4)c3)c3ncnc(N)c23)ccc1C [Example 24, (E)-N-(3-(4-amino-3-(3-methoxy-4-methylphenyl)-1H-pyrazolo[3,4-d]pyrimidin-1-yl)phenyl)-4-(cyclopropyl(methyl)amino)-N-methylbut-2-enamide] | < 100 nM | > 1000 nM | < 100 nM | > 1000 nM | – | 100 to 1000 nM | < 100 nM | 100 to 1000 nM | < 100 nM | < 100 nM |
| CN(C(=O)/C=C/CN(C)C1CC1)c1cccc(-n2nc(-c3ccc(Cl)cc3)c3c(N)ncnc32)c1 [Example 25, (E)-N-(3-(4-amino-3-(4-chlorophenyl)-1H-pyrazolo[3,4-d]pyrimidin-1-yl)phenyl)-4-(cyclopropyl(methyl)amino)-N-methylbut-2-enamide] | < 100 nM | – | < 100 nM | > 1000 nM | < 100 nM | > 1000 nM | < 100 nM | 100 to 1000 nM | 100 to 1000 nM | > 1000 nM |

Other lines, results leading:

| IC50 (BMX) | IC50 (RET) | IC50 (Tec) | IC50 (CSK) | IC50 (EGFR) | IC50 (Lck) | IC50 (Btk) | IC50 (C-src) | IC50 (BLK) | IC50 (Lyn) | Compound |
| --- | --- | --- | --- | --- | --- | --- | --- | --- | --- | --- |
| < 100 nM | 100 to 1000 nM | < 100 nM | 100 to 1000 nM | 100 to 1000 nM | 100 to 1000 nM | < 100 nM | < 100 nM | < 100 nM | 100 to 1000 nM | CN(C)C/C=C/C(=O)N1CC[C@@H](n2nc(-c3ccc(Cl)cc3)c3c(N)ncnc32)C1 [Example 1, (E)-1-((R)-3-(4-amino-3-(4-chlorophenyl)-1H-pyrazolo[3,4-d]pyrimidin-1-yl)pyrrolidin-1-yl)-4-(dimethylamino)but-2-en-1-one] |
| < 100 nM | > 1000 nM | 100 to 1000 nM | > 1000 nM | – | > 1000 nM | < 100 nM | > 1000 nM | < 100 nM | > 1000 nM | COCCOc1ccc(-c2nn([C@@H]3CCN(C(=O)/C=C/CN(C)C)C3)c3ncnc(N)c23)cc1 [Example 2, (E)-1-((R)-3-(4-amino-3-(4-(2-methoxyethoxy)phenyl)-1H-pyrazolo[3,4-d]pyrimidin-1-yl)pyrrolidin-1-yl)-4-(dimethylamino)but-2-en-1-one] |
| < 100 nM | > 1000 nM | < 100 nM | > 1000 nM | > 1000 nM | > 1000 nM | < 100 nM | 100 to 1000 nM | 100 to 1000 nM | > 1000 nM | CN(C)C/C=C/C(=O)N1CC[C@@H](n2nc(-c3ccc(F)cc3)c3c(N)ncnc32)C1 [Example 3, (R,E)-1-(3-(4-amino-3-(4-fluorophenyl)-1H-pyrazolo[3,4-d]pyrimidin-1-yl)pyrrolidin-1-yl)-4-(dimethylamino)but-2-en-1-one] |
| < 100 nM | 100 to 1000 nM | < 100 nM | > 1000 nM | > 1000 nM | 100 to 1000 nM | < 100 nM | 100 to 1000 nM | < 100 nM | 100 to 1000 nM | COc1ccc(-c2nn([C@@H]3CCN(C(=O)/C=C/CN(C)C)C3)c3ncnc(N)c23)cc1 [Example 5, (R,E)-1-(3-(4-amino-3-(4-methoxyphenyl)-1H-pyrazolo[3,4-d]pyrimidin-1-yl)pyrrolidin-1-yl)-4-(dimethylamino)but-2-en-1-one] |
| < 100 nM | – | < 100 nM | < 100 nM | < 100 nM | < 100 nM | < 100 nM | < 100 nM | < 100 nM | < 100 nM | COc1cc(-c2nn(-c3ccc(NC(=O)/C=C/CN(C)C)cc3)c3ncnc(N)c23)ccc1C [Example 16, (E)-N-(4-(4-amino-3-(3-methoxy-4-methylphenyl)-1H-pyrazolo[3,4-d]pyrimidin-1-yl)phenyl)-4-(dimethylamino)but-2-enamide] |
